# Where two headings read alike, the source gives them in different places. Where a SMILES comes first, the peptide text is derived from it. [ ]: non-standard residue; d: D form. The star is where a group is joined. DOTA = O=C(O)CN1CCN(CC(=O)O)CCN(CC(=O)*)CCN(CC(=O)O)CC1
# Experiment: Biodistribution experiments in normal mice after i.v. injection
# Assay type: in vivo
# Settings: i.v.; for tissue uptake dose at 10 min / tissue uptake dose at 1 h / tissue uptake dose at 3 h: male, ddY, mouse, in vivo, iv, total radioactivity; for tissue uptake dose at 10 min / tissue uptake dose at 1 h / tissue uptake dose at 3 h / F/B ratio (Femur:blood ratio): mice, mean (SD)
# Protocol: Experiments with animals were conducted in strict accordance with the Guidelines for the Care and Use of Laboratory Animals of Kanazawa University. The animal experimental protocols used were approved by the Committee on Animal Experimentation of Kanazawa University (Permit Number: AP-132633). Biodistribution experiments were performed after intravenous administration of each diluted tracer solution (37–740 kBq/100 μL) to 6-week-old male ddY mice (27–32 g, Japan SLC, Inc., Hamamatsu, Japan). Four or five mice at each time point after the administration of each compound were sacrificed by decapitation at 10, 60, and 180 min post-injection. Tissues of interest were taken and weighed. Complete left femurs were isolated as representative bone samples, radioactivity was determined using gamma counters (AccuFLEX γ ARC-8001 in the case of ^18F, Hitachi, Ltd.), and background counts and physical decay were corrected during counting.
smiles,measurement,setting,value
"O=C(O)C[C@@H](NC(=O)[C@@H](CC(=O)O)NC(=O)[C@@H](CC(=O)O)NC(=O)[C@@H](CC(=O)O)NC(=O)[C@@H](CC(=O)O)NC(=O)[C@@H](CC(=O)O)NC(=O)[C@@H](CC(=O)O)NC(=O)[C@@H](CC(=O)O)NC(=O)[C@@H](CC(=O)O)NC(=O)[C@@H](CC(=O)O)NC(=O)[C@@H](CC(=O)O)NC(=O)CN1CCN(CC(=O)O)CCN(CC(=O)O)CCN(CC(=O)O)CC1)C(=O)O [^67Ga-DOTA-(D-Asp)11, metal not drawn] ({DOTA}-[dD][dD][dD][dD][dD][dD][dD][dD][dD][dD][dD]-OH)",tissue uptake dose at 10 min,"10 min after injection, footnote b, read-out: Biodistribution of radioactivity, Stomach",0.18 %ID
same,tissue uptake dose at 10 min,"10 min after injection, read-out: Biodistribution of radioactivity, Blood",1.71 %ID
same,tissue uptake dose at 10 min,"10 min after injection, read-out: Biodistribution of radioactivity, Bone (Femur)",11.9 %ID
same,tissue uptake dose at 10 min,"10 min after injection, read-out: Biodistribution of radioactivity, Brain",0.05 %ID
same,tissue uptake dose at 10 min,"10 min after injection, read-out: Biodistribution of radioactivity, Heart",0.65 %ID
same,tissue uptake dose at 10 min,"10 min after injection, read-out: Biodistribution of radioactivity, Kidney",12.8 %ID
same,tissue uptake dose at 10 min,"10 min after injection, read-out: Biodistribution of radioactivity, Large-intestine",0.28 %ID
same,tissue uptake dose at 10 min,"10 min after injection, read-out: Biodistribution of radioactivity, Liver",0.51 %ID
same,tissue uptake dose at 10 min,"10 min after injection, read-out: Biodistribution of radioactivity, Lung",1.24 %ID
same,tissue uptake dose at 10 min,"10 min after injection, read-out: Biodistribution of radioactivity, Muscle",0.58 %ID
same,tissue uptake dose at 10 min,"10 min after injection, read-out: Biodistribution of radioactivity, Pancreas",0.53 %ID
same,tissue uptake dose at 10 min,"10 min after injection, read-out: Biodistribution of radioactivity, Small-intestine",0.38 %ID
same,tissue uptake dose at 10 min,"10 min after injection, read-out: Biodistribution of radioactivity, Spleen",0.44 %ID
same,tissue uptake dose at 1 h,"60 min after injection, footnote b, read-out: Biodistribution of radioactivity, Stomach",0.04 %ID
same,tissue uptake dose at 1 h,"60 min after injection, read-out: Biodistribution of radioactivity, Blood",0.14 %ID
same,tissue uptake dose at 1 h,"60 min after injection, read-out: Biodistribution of radioactivity, Bone (Femur)",15.3 %ID
same,tissue uptake dose at 1 h,"60 min after injection, read-out: Biodistribution of radioactivity, Brain",0.01 %ID
same,tissue uptake dose at 1 h,"60 min after injection, read-out: Biodistribution of radioactivity, Heart",0.04 %ID
same,tissue uptake dose at 1 h,"60 min after injection, read-out: Biodistribution of radioactivity, Kidney",2.92 %ID
same,tissue uptake dose at 1 h,"60 min after injection, read-out: Biodistribution of radioactivity, Large-intestine",0.03 %ID
same,tissue uptake dose at 1 h,"60 min after injection, read-out: Biodistribution of radioactivity, Liver",0.2 %ID
same,tissue uptake dose at 1 h,"60 min after injection, read-out: Biodistribution of radioactivity, Lung",0.08 %ID
same,tissue uptake dose at 1 h,"60 min after injection, read-out: Biodistribution of radioactivity, Muscle",0.18 %ID
same,tissue uptake dose at 1 h,"60 min after injection, read-out: Biodistribution of radioactivity, Pancreas",0.09 %ID
same,tissue uptake dose at 1 h,"60 min after injection, read-out: Biodistribution of radioactivity, Small-intestine",0.07 %ID
same,tissue uptake dose at 1 h,"60 min after injection, read-out: Biodistribution of radioactivity, Spleen",0.13 %ID
same,tissue uptake dose at 3 h,"180 min after injection, footnote b, read-out: Biodistribution of radioactivity, Stomach",0.02 %ID
same,tissue uptake dose at 3 h,"180 min after injection, read-out: Biodistribution of radioactivity, Blood",0.08 %ID
same,tissue uptake dose at 3 h,"180 min after injection, read-out: Biodistribution of radioactivity, Bone (Femur)",15.4 %ID
same,tissue uptake dose at 3 h,"180 min after injection, read-out: Biodistribution of radioactivity, Brain",0.02 %ID
same,tissue uptake dose at 3 h,"180 min after injection, read-out: Biodistribution of radioactivity, Heart",0.03 %ID
same,tissue uptake dose at 3 h,"180 min after injection, read-out: Biodistribution of radioactivity, Kidney",1 %ID
same,tissue uptake dose at 3 h,"180 min after injection, read-out: Biodistribution of radioactivity, Large-intestine",0.11 %ID
same,tissue uptake dose at 3 h,"180 min after injection, read-out: Biodistribution of radioactivity, Liver",0.13 %ID
same,tissue uptake dose at 3 h,"180 min after injection, read-out: Biodistribution of radioactivity, Lung",0.05 %ID
same,tissue uptake dose at 3 h,"180 min after injection, read-out: Biodistribution of radioactivity, Muscle",0.06 %ID
same,tissue uptake dose at 3 h,"180 min after injection, read-out: Biodistribution of radioactivity, Pancreas",0.04 %ID
same,tissue uptake dose at 3 h,"180 min after injection, read-out: Biodistribution of radioactivity, Small-intestine",0.05 %ID
same,tissue uptake dose at 3 h,"180 min after injection, read-out: Biodistribution of radioactivity, Spleen",0.1 %ID
same,F/B ratio (Femur:blood ratio),10 min after injection,7.01 (0.56)
same,F/B ratio (Femur:blood ratio),60 min after injection,147.10 (71.25)
same,F/B ratio (Femur:blood ratio),180 min after injection,248.95 (170.64)
same,Accumulation of radioactivity in bone (in words),normal mice,high accumulation and retention of radioactivity in bone
